Experimental data: patent publication US20240294548A1, “TRICYCLIC SULTAMS AND SULFAMIDES AS ANTITUMOR AGENTS” (PELOTON THERAPEUTICS INC., priority 2021, published 2024)
Like-named read-outs stand apart in the source and are kept apart here.

Legend:
[1] = tested on: HCT116 human colorectal carcinoma cells; test: CellTiter-Glo assay (cell viability); type: cell-based; details: HCT-116, 72 h, read-out: CTG IC50
Outline: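 Cells (3,000/well) in DMEM/10% FBS were treated next day with 3-fold serial dilutions (final top […]) in triplicate for 3 days. Viability read by CellTiter-Glo luminescence; IC50 derived from dose-response.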

[2] = biological target: T1, DCAF15 (DDA1-DDB1ΔB-DCAF15Δpro) (Homo sapiens, UniProt Q66K64, DEL276-383); test: DCAF15 displacement assay (displacement FRET, probe PT7795); type: binding
T1 construct: made in house; host or cells: Sf9 (Bac-to-Bac baculovirus)

[3] = biological target: T2, DCAF15 RBM39 ternary complex (Homo sapiens, UniProt Q14498+Q66K64, DEL276-383); test: DCAF15 RBM39 complex formation assay (FRET); type: biochemical
T2 construct: Amino acids 150 to 331 of RBM39 were cloned into pGEX4T3; GST (from the pGEX4T3 vector, own knowledge) followed by a TEV cleavage site (N); made in house; host or cells: Sf9 baculovirus (DDB1ΔB/DCAF15); E. coli (RBM39 R1R2)
Outline: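 Mix of 20 nM DDB1DB/DCAF15, 50 nM RBM39 R1R2, 0.2 nM Eu-anti-6×His and 50 nM APC-anti-FLAG (25 mM HEPES pH 7.5, 100 mM NaCl). Compounds, 1 μM down in 3-fold steps over 14 points, kept overnight at 4 °C.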

[4] = HCT116 cells, 3 days, CellTiter-Glo luminescence
[5] = displacement of PT7795 (300 nM), compound 0.01 to 100 μM, 18 hours incubation, read-out: DCAF15 displacement IC50
[6] = FRET ratio, 20 nM DDB1DB/DCAF15, 50 nM RBM39 R1R2, overnight at 4° C., read-out: DCAF15 RBM39 ternary complex EC50

T2 sequence (Q66K64 with tags, fused parts or gaps DEL276-383): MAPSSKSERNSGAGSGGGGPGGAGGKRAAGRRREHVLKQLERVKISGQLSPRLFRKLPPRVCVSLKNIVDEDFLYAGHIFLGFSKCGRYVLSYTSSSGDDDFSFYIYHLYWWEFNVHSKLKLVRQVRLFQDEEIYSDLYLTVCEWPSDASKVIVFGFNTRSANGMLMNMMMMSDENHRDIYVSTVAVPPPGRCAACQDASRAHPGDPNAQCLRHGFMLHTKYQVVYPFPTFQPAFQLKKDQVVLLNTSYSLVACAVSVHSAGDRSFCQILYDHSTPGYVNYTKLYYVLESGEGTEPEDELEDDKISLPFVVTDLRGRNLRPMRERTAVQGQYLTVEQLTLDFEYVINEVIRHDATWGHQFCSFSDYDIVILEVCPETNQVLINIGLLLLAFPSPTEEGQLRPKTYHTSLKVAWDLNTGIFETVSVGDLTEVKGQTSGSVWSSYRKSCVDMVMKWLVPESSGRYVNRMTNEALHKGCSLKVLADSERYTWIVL
T2 sequence (Q14498 150-331, stated change not applied): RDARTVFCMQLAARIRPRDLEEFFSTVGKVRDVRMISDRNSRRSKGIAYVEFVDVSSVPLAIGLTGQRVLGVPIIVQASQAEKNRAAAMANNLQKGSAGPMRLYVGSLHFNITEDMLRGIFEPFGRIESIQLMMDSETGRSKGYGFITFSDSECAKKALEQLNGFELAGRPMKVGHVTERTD

SMILES	IC50 [1, 4] [nM]	IC50 [2, 5] [nM]	EC50 [3, 6] [nM]	IC50 [1] [nM]	IC50 [2] [nM]	EC50 [3] [nM]
O=S1(=O)Nc2c(cc(Cl)c3c(Cl)c[nH]c23)CN1Cc1ccccc1F [Compound 70, 6,7-dichloro-3-(2-fluorobenzyl)-1,3,4,9-tetrahydro-[1,2,6] thiadiazino[4,3-g]indole 2,2-dioxide]	833	1950	3.3			
O=S1(=O)Nc2c(cc(Cl)c3c(Cl)c[nH]c23)CN1CCN1CCOCC1 [Compound 71, 6,7-dichloro-3-(2-morpholinoethyl)-1,3,4,9-tetrahydro-[1,2,6] thiadiazino[4,3-g]indole 2,2-dioxide]				353	952	2.1
CS(=O)(=O)N1CCC(CN2Cc3cc(Cl)c4c(Cl)c[nH]c4c3NS2(=O)=O)CC1 [Compound 72, 6,7-dichloro-3-((1-(methylsulfonyl)piperidin-4-yl)methyl)-1,3,4,9-tetrahydro-[1,2,6]thiadiazino[4,3-g]indole 2,2-dioxide]	150	223	1.2			
O=S1(=O)Nc2c(cc(Cl)c3c(Cl)c[nH]c23)CN1Cc1cccc(O)c1 [Compound 73, 6,7-dichloro-3-(3-hydroxybenzyl)-1,3,4,9-tetrahydro-[1,2,6] thiadiazino[4,3-g]indole 2,2-dioxide]	418	1650	1.3			
Nc1ccccc1CN1Cc2cc(Cl)c3c(Cl)c[nH]c3c2NS1(=O)=O [Compound 74, 3-(2-aminobenzyl)-6,7-dichloro-1,3,4,9-tetrahydro-[1,2,6] thiadiazino[4,3-g]indole 2,2-dioxide]	171	301	1.3			
O=S1(=O)Nc2c(cc(Cl)c3c(Cl)c[nH]c23)CN1Cc1cccc(F)c1 [Compound 75, 6,7-dichloro-3-(3-fluorobenzyl)-1,3,4,9-tetrahydro-[1,2,6] thiadiazino[4,3-g]indole 2,2-dioxide]	850	4320	2.3			

Now from value to molecule, other results behind:

IC50 [1, 4] [nM]	IC50 [2, 5] [nM]	EC50 [3, 6] [nM]	SMILES	IC50 [1] [nM]	IC50 [2] [nM]	EC50 [3] [nM]
254	569	1.2	Nc1cccc(CN2Cc3cc(Cl)c4c(Cl)c[nH]c4c3NS2(=O)=O)c1 [Compound 76, 3-(3-aminobenzyl)-6,7-dichloro-1,3,4,9-tetrahydro-[1,2,6] thiadiazino[4,3-g]indole 2,2-dioxide]			
66.9	781	2.3	CN1CCC(CN2Cc3cc(Cl)c4c(Cl)c[nH]c4c3NS2(=O)=O)CC1 [Compound 83, 6,7-dichloro-3-((1-methylpiperidin-4-yl)methyl)-1,3,4,9-tetrahydro-[1,2,6]thiadiazino[4,3-g]indole 2,2-dioxide]			
1790	33100	4.3	O=S1(=O)Nc2c(cc(Cl)c3c(Cl)c[nH]c23)CN1CCc1ccccc1 [Compound 84, 6,7-dichloro-3-phenethyl-1,3,4,9-tetrahydro-[1,2,6] thiadiazino[4,3-g]indole 2,2-dioxide]			
302	8380	2	O=S1(=O)Nc2c(cc(Cl)c3c(Cl)c[nH]c23)CN1CC1CC(F)(F)C1 [Compound 85, 6,7-dichloro-3-((3,3-difluorocyclobutyl)methyl)-1,3,4,9-tetrahydro-[1,2,6] thiadiazino[4,3-g]indole 2,2-dioxide]			
121	410	1.3	O=S1(=O)Nc2c(cc(Cl)c3c(Cl)c[nH]c23)CN1CC1CCOC1 (stereo not drawn) [Compound 86, 6,7-dichloro-3-((tetrahydrofuran-3-yl)methyl)-1,3,4,9-tetrahydro-[1,2,6] thiadiazino[4,3-g]indole 2,2-dioxide]			
258	6220	1.8	COCCN1Cc2cc(C)c3c(Cl)c[nH]c3c2NS1(=O)=O [Compound 87, 7-chloro-3-(2-methoxyethyl)-6-methyl-1,3,4,9-tetrahydro-[1,2,6] thiadiazino[4,3-g]indole 2,2-dioxide]			
